# Data taken from patent US20020052295A1, “Diacyl derivatives of propylene diamine having herbicidal activity” (priority 1999, published 2002).
# Tests used:
# CHEAL [1] = experiment: Pre-emergence herbicidal activity on CHEAL (common lambsquarters); type: in vivo, Chenopodium album; conditions: lowest tested rate giving 80% or greater inhibition, approx. 14 days after planting and treating, greenhouse
# In short: (§1)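 GR80 from percent growth inhibition versus untreated controls, rated about 14 days after planting and pre-emergence soil-surface application. Compound applied in 50:50 acetone:water over freshly covered seeds; pots kept in greenhouse at 30/21 °C day/night.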
# CIRAR = experiment: Pre-emergence herbicidal activity on CIRAR (canada thistle, seedling); type: in vivo, Cirsium arvense; conditions: lowest tested rate giving 80% or greater inhibition, approx. 14 days after planting and treating, greenhouse
# In short: as §1
# PANDI [2] = experiment: Pre-emergence herbicidal activity on PANDI (fall panicum); type: in vivo, Panicum dichotomiflorum; conditions: lowest tested rate giving 80% or greater inhibition, approx. 14 days after planting and treating, greenhouse
# In short: as §1
# ABUTH [3] = experiment: Pre-emergence herbicidal activity on ABUTH (velvetleaf); type: in vivo, Abutilon theophrasti; conditions: lowest tested rate giving 80% or greater inhibition, approx. 14 days after planting and treating, greenhouse
# In short: as §1
# PANDI [4] = experiment: Post-emergence herbicidal activity on PANDI (fall panicum); type: in vivo, Panicum dichotomiflorum; conditions: post-emergence spray; lowest tested rate with 80% or greater inhibition; about 14 days after treatment
# Excerpt: (§2) All such uses, and the biological activity enabling such uses, are embraced by the term “herbicidal” herein. Tables 15 and 16 summarize results of tests conducted as described below to determine the pre-emergence herbicidal activity, in the form of a GR80 value, of illustrative compounds of this invention. […] Where herbicidal activity was evident but 80% inhibition was not achieved at the highest rate tested (typically 1000 g/ha), an asterisk (*) is shown in the following tables. Herbicidal activity evident in the form of symptoms of phytotoxicity, in the absence of at least 80% inhibition at any rate, is indicated in the tables by “phyto”. A blank cell in the following tables indicates no herbicidal or phytotoxic response at any rate tested.
# (§3) In another set of tests, the post-emergence activity of compounds of this invention was evaluated on the cool season species listed above. The following procedure was used.
# (§4) A pre-prepared topsoil mixture (described above) was placed in a pot and compacted to a depth of 1.0 to 1.25 cm from the top of the pot. Seeds of each of several monocotyledonous and dicotyledonous annual plant species were placed on top of the soil The seeds were covered with a mixture of 50% topsoil and 50% Rediearth™ in sufficient quantity to level-fill the pots. The pots were then placed on a greenhouse bench and subirrigated as needed until plants growing from the seeds had emerged and reached a suitable growth stage for post-emergence treatment, typically 9 to 14 days after planting.
# (§5) A known amount of each test compound dissolved or suspended in an appropriate organic solvent was diluted with a 50:50 mix of acetone and water and applied to the plants by spraying with a standard spray nozzle in a spray volume of 3,100 l/ha at a spray pressure of […] (30 psig). Control plants were not sprayed.
# (§6) After treatment the plants were placed in a greenhouse with a 30/21° C. day/night temperature regime and were subsequently watered as needed for growth. Approximately 14 days after treatment, the plants were observed and herbicidal efficacy recorded as percent inhibition by comparison with control plants.
# SORHA [5] = experiment: Post-emergence herbicidal activity on SORHA (johnsongrass, seedling); type: in vivo, Sorghum halepense; conditions: post-emergence spray; lowest tested rate with 80% or greater inhibition; about 14 days after treatment
# Excerpt: as §2, §3, §4, §5, §6
# BRAPP [6] = experiment: Post-emergence herbicidal activity on BRAPP (broadleaf signalgrass); type: in vivo, Brachiaria platyphylla; conditions: post-emergence spray; lowest tested rate with 80% or greater inhibition; about 14 days after treatment
# Excerpt: as §2, §3, §4, §5, §6
# DIGSA [7] = experiment: Pre-emergence herbicidal activity on DIGSA (large crabgrass); type: in vivo, Digitaria sanguinalis; conditions: lowest tested rate giving 80% or greater inhibition, approx. 14 days after planting and treating, greenhouse
# In short: as §1
# SORVU [8] = experiment: Post-emergence herbicidal activity on SORVU (shattercane); type: in vivo, Sorghum vulgare; conditions: post-emergence spray; lowest tested rate with 80% or greater inhibition; about 14 days after treatment
# Excerpt: as §2, §3, §4, §5, §6
# AMARE [9] = experiment: Post-emergence herbicidal activity on AMARE (redroot pigweed); type: in vivo, Amaranthus retroflexus; conditions: post-emergence spray; lowest tested rate with 80% or greater inhibition; about 14 days after treatment
# Excerpt: as §2, §3, §4, §5, §6
# ECHCG [10] = experiment: Post-emergence herbicidal activity on ECHCG (barnyardgrass); type: in vivo, Echinochloa crus-galli; conditions: post-emergence spray; lowest tested rate with 80% or greater inhibition; about 14 days after treatment
# Excerpt: as §2, §3, §4, §5, §6
# SORVU [11] = experiment: Pre-emergence herbicidal activity on SORVU (shattercane); type: in vivo, Sorghum vulgare; conditions: lowest tested rate giving 80% or greater inhibition, approx. 14 days after planting and treating, greenhouse
# Excerpt: as §2
# The pre-emergence tests were conducted by the following procedure. Topsoil was sieved to pass through a 1.27 cm screen. Fertilizer was added to the topsoil and the mixture was then sterilized by heating. The topsoil mixture was placed in a pot and compacted to a depth of 1.0 to 1.25 cm from the top of the pot. Seeds of each of several monocotyledonous and dicotyledonous annual plant species were placed on top of the soil. Additional soil was subsequently placed over the seeds to level-fill the pot. A known amount of each test compound dissolved or suspended in an appropriate organic solvent was diluted with a 50:50 mix of acetone and water and applied to the surface of the soil. After treatment the plants were placed in a greenhouse with a 30/21° C. day/night temperature regime where they received 0.64 cm of overhead irrigation. All subsequent watering consisted of a light overhead mist and/or subirrigation as needed for germination and growth.
# Approximately 14 days after planting and treating, the plants were observed and herbicidal efficacy recorded as percent inhibition by comparison with untreated plants.
# The plant species usually regarded as weeds which were utilized in the tests are identified in the tables below according to the following legend, in which “d” indicates a dicotyledonous species and “m” a monocotyledonous species. All monocotyledonous species included in the tests herein are grasses.
# SORHA [12] = experiment: Pre-emergence herbicidal activity on SORHA (johnsongrass, seedling); type: in vivo, Sorghum halepense; conditions: lowest tested rate giving 80% or greater inhibition, approx. 14 days after planting and treating, greenhouse
# In short: as §1
# ABUTH [13] = experiment: Post-emergence herbicidal activity on ABUTH (velvetleaf); type: in vivo, Abutilon theophrasti; conditions: post-emergence spray; lowest tested rate with 80% or greater inhibition; about 14 days after treatment
# Excerpt: as §2, §3, §4, §5, §6
# AMARE [14] = experiment: Pre-emergence herbicidal activity on AMARE (redroot pigweed); type: in vivo, Amaranthus retroflexus; conditions: lowest tested rate giving 80% or greater inhibition, approx. 14 days after planting and treating, greenhouse
# In short: as §1
# SETFA [15] = experiment: Pre-emergence herbicidal activity on SETFA (giant foxtail); type: in vivo, Setaria faberi; conditions: lowest tested rate giving 80% or greater inhibition, approx. 14 days after planting and treating, greenhouse
# In short: as §1
# DATST [16] = experiment: Post-emergence herbicidal activity on DATST (jimsonweed); type: in vivo, Datura stramonium; conditions: post-emergence spray; lowest tested rate with 80% or greater inhibition; about 14 days after treatment
# Excerpt: as §2, §3, §4, §5, §6
# DATST [17] = experiment: Pre-emergence herbicidal activity on DATST (jimsonweed); type: in vivo, Datura stramonium; conditions: lowest tested rate giving 80% or greater inhibition, approx. 14 days after planting and treating, greenhouse
# In short: as §1
# PANMI [18] = experiment: Post-emergence herbicidal activity on PANMI (wild proso millet); type: in vivo, Panicum miliaceum; conditions: post-emergence spray; lowest tested rate with 80% or greater inhibition; about 14 days after treatment
# POROL [19] = experiment: Pre-emergence herbicidal activity on POROL (common purslane); type: in vivo, Portulaca oleracea; conditions: lowest tested rate giving 80% or greater inhibition, approx. 14 days after planting and treating, greenhouse
# In short: as §1
# DIGSA [20] = experiment: Post-emergence herbicidal activity on DIGSA (large crabgrass); type: in vivo, Digitaria sanguinalis; conditions: post-emergence spray; lowest tested rate with 80% or greater inhibition; about 14 days after treatment
# SOLNI [21] = experiment: Post-emergence herbicidal activity on SOLNI (black nightshade); type: in vivo, Solanum nigrum; conditions: post-emergence spray; lowest tested rate with 80% or greater inhibition; about 14 days after treatment
# Excerpt: as §2, §3, §4, §5, §6
# POROL [22] = experiment: Post-emergence herbicidal activity on POROL (common purslane; table head prints PORAL); type: in vivo, Portulaca oleracea; conditions: post-emergence spray; lowest tested rate with 80% or greater inhibition; about 14 days after treatment
# Excerpt: as §2, §3, §4, §5, §6
# CONAR [23] = experiment: Pre-emergence herbicidal activity on CONAR (field bindweed); type: in vivo, Convolvulus arvensis; conditions: lowest tested rate giving 80% or greater inhibition, approx. 14 days after planting and treating, greenhouse
# In short: as §1
# CONAR [24] = experiment: Post-emergence herbicidal activity on CONAR (field bindweed); type: in vivo, Convolvulus arvensis; conditions: post-emergence spray; lowest tested rate with 80% or greater inhibition; about 14 days after treatment
# Excerpt: as §2, §3, §4, §5, §6
# PANMI [25] = experiment: Pre-emergence herbicidal activity on PANMI (wild proso millet); type: in vivo, Panicum miliaceum; conditions: lowest tested rate giving 80% or greater inhibition, approx. 14 days after planting and treating, greenhouse
# In short: as §1
# BRAPP [26] = experiment: Pre-emergence herbicidal activity on BRAPP (broadleaf signalgrass); type: in vivo, Brachiaria platyphylla; conditions: lowest tested rate giving 80% or greater inhibition, approx. 14 days after planting and treating, greenhouse
# In short: as §1
# SETFA [27] = experiment: Post-emergence herbicidal activity on SETFA (giant foxtail); type: in vivo, Setaria faberi; conditions: post-emergence spray; lowest tested rate with 80% or greater inhibition; about 14 days after treatment
# Excerpt: as §2, §3, §4, §5, §6
# CHEAL [28] = experiment: Post-emergence herbicidal activity on CHEAL (common lambsquarters); type: in vivo, Chenopodium album; conditions: post-emergence spray; lowest tested rate with 80% or greater inhibition; about 14 days after treatment
# Excerpt: as §2, §3, §4, §5, §6
# ECHCG [29] = experiment: Pre-emergence herbicidal activity on ECHCG (barnyardgrass); type: in vivo, Echinochloa crus-galli; conditions: lowest tested rate giving 80% or greater inhibition, approx. 14 days after planting and treating, greenhouse
# In short: as §1
# SOLNI [30] = experiment: Pre-emergence herbicidal activity on SOLNI (black nightshade); type: in vivo, Solanum nigrum; conditions: lowest tested rate giving 80% or greater inhibition, approx. 14 days after planting and treating, greenhouse
# In short: as §1
smiles,measurement,setting,value
"CCSc1ncccc1C(=O)NC(C)CNC(=O)c1cccc(C(F)(F)F)c1 (stereo not shown) [Example 243, 2-ethylthio-N-[1-methyl-2-(3-trifluoromethyl)phenylcarbonylamino]ethyl-3-pyridinecarboxamide]",Pre-emergence activity (GR80) on CHEAL,CHEAL [1],250 g/ha
same,Pre-emergence activity (GR80) on CIRAR,CIRAR,250 g/ha
same,Pre-emergence activity (GR80) on PANDI,PANDI [2],500 g/ha
same,Pre-emergence activity (GR80) on ABUTH,ABUTH [3],500 g/ha
same,Post-emergence activity (GR80) PANDI,PANDI [4],[empty]
same,Post-emergence activity (GR80) SORHA,SORHA [5],[empty]
same,Post-emergence activity (GR80) BRAPP,BRAPP [6],[empty]
same,Pre-emergence activity (GR80) on DIGSA,DIGSA [7],500 g/ha
same,Post-emergence activity (GR80) SORVU,SORVU [8],[empty]
same,Post-emergence activity (GR80) AMARE,AMARE [9],phyto
same,Post-emergence activity (GR80) ECHCG,ECHCG [10],[empty]
same,Pre-emergence activity (GR80) on SORVU,SORVU [11],phyto
same,Pre-emergence activity (GR80) on SORHA,SORHA [12],"* (Where herbicidal activity was evident but 80% inhibition was not achieved at the highest rate tested (typically 1000 g/ha), an asterisk (*) is shown)"
same,Post-emergence activity (GR80) ABUTH,ABUTH [13],phyto
same,Pre-emergence activity (GR80) on AMARE,AMARE [14],750 g/ha
same,Pre-emergence activity (GR80) on SETFA,SETFA [15],500 g/ha
same,Post-emergence activity (GR80) DATST,DATST [16],750 g/ha
same,Pre-emergence activity (GR80) on DATST,DATST [17],250 g/ha
same,Post-emergence activity (GR80) PANMI,PANMI [18],[empty]
same,Pre-emergence activity (GR80) on PORAL,POROL [19],250 g/ha
same,Post-emergence activity (GR80) DIGSA,DIGSA [20],[empty]
same,Post-emergence activity (GR80) SOLNI,SOLNI [21],phyto
same,Post-emergence activity (GR80) PORAL,POROL [22],"* (Where herbicidal activity was evident but 80% inhibition was not achieved at the highest rate tested (typically 1000 g/ha), an asterisk (*) is shown)"
same,Pre-emergence activity (GR80) on CONAR,CONAR [23],250 g/ha
same,Post-emergence activity (GR80) CONAR,CONAR [24],"* (Where herbicidal activity was evident but 80% inhibition was not achieved at the highest rate tested (typically 1000 g/ha), an asterisk (*) is shown)"
same,Pre-emergence activity (GR80) on PANMI,PANMI [25],750 g/ha
same,Pre-emergence activity (GR80) on BRAPP,BRAPP [26],500 g/ha
same,Post-emergence activity (GR80) SETFA,SETFA [27],[empty]
same,Post-emergence activity (GR80) CHEAL,CHEAL [28],phyto
same,Pre-emergence activity (GR80) on ECHCG,ECHCG [29],1000 g/ha
same,Pre-emergence activity (GR80) on SOLNI,SOLNI [30],250 g/ha
